Bridge positions count the residues as written; N and C are the ends. Square brackets hold non-standard residues; d marks the D form. Peptide text beside a SMILES is read from it. R8 = C=CCCCCCC[C@@](C)(N)C(=O)O; S5 = C=CCCC[C@](C)(N)C(=O)O; Nle = CCCC[C@H](N)C(=O)O
What was measured:
HRE-bla ME-180 cells [1] = test: Reporter gene assay (HRE-bla ME-180 HIF reporter, GeneBLAzer); assay type: cell-based, human; conditions: for EC50: 24 hour normoxia
Summary of the method: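 A FRET β-lactamase readout of HIF transcription was used. After compound treatment in 0.3% DMSO/media under normoxic conditions, 20 μl of 6× LiveBLAzer-FRET B/G (CCF4-AM) substrate was added. Plates sat 3 hr at room temperature in the dark and were read at 409 Ex/460Em and 409Ex/530Em on a Synergy 2. Inhibition was compared against DMSO vehicle controls, with chetomin as positive control.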

[2] = target: T1, flag-tagged HIF1α (AA 786-826) / His6-tagged p300 (AA 323-423) complex (Homo sapiens, UniProt Q09472); test: HIF1α p300 displacement assay (TR FRET, +CHAPS); assay type: binding; conditions: read-out: IC50 (nM) (HIF1α_p300 Displacement + CHAPS)
T1 construct: His6-tagged p300 (AA 323-423); made in house; host or cells: E. coli (pETDuet vector)
Summary of the method: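 The co-expressed flag-HIF1α (786-826)/His6-p300 (323-423) complex, purified from E. coli with 0.1 mM ZnSO4, was used at 300 nM final with competitor peptides for 1 h at room temperature. Buffer was 150 mM NaCl, 20 mM HEPES pH 7.4, 7.5 mM CHAPS and 1 mM DTT. Anti-Flag-K (0.5 μM) and anti-His-D2 (4 nM) were then added for 2 h, and IC50s were fitted from the TR-FRET ratio.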

HRE-bla ME-180 cells [3] = test: Cell proliferation assay (viability, MTT, 1% FBS); assay type: cell-based, human
Summary of the method: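 ME-180 cells (2×10^4/well) in Opti-MEM with 1% FBS were pretreated 16 h under normoxia (21% O2), vehicle 0.5% DMSO final. Incubation then continued under normoxia or hypoxia (1% O2); viable cells quantified by MTT-type CellTiter 96 assay.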

EC50 (HRE-bla ME-180 cells [1]) | IC50 [2] | SMILES | 18 h Avg % max inhibition at top conc (HIF Rptr-24 hrs normoxia) (μM) (HRE-bla ME-180 cells [1]) | Viability 1% FBS AVG (MTT V3-24 hr Normoxia) (μM) (HRE-bla ME-180 cells [3])
5 to 15 µM | ≤ 200 nM | CC[C@H](C)[C@H](NC(=O)[C@H](Cc1ccccc1)NC(C)=O)C(=O)N[C@@H](CC(=O)O)C(=O)N[C@@H](CCC(=O)O)C(=O)N[C@@]1(C)CCCC=CCCC[C@@](C)(C(=O)N[C@@H](CC(C)C)C(=O)N[C@H](C(=O)N[C@H](C(=O)N[C@@H](CCC(=O)O)C(=O)N[C@@H](CCSC)C(=O)N[C@@H](C)C(=O)N[C@@H](CC(C)C)C(=O)N[C@@H](CC(=O)O)C(=O)N[C@@H](CCCNC(=N)N)C(=O)N[C@H](C(=O)N[C@@H](CCCCN)C(=O)N[C@@H](CCC(=O)O)C(=O)N[C@@H](CC(C)C)C(=O)N2CCC[C@H]2C(=O)N[C@@H](CCC(=O)O)C(=O)N[C@@H](CC(C)C)C(=O)N[C@@H](Cc2c[nH]c3ccccc23)C(=O)N[C@@H](CC(C)C)C(N)=O)[C@@H](C)CC)[C@@H](C)CC)C(C)C)NC(=O)[C@H](C)NC(=O)[C@H](CC(C)C)NC(=O)[C@H](C(C)C)NC1=O [SP-112] (Ac-FIDE[S5]VLA[S5]LVIEMALDRIKELPELWL-NH2; staple 5-9) | +++ (≤25 but <50: +++) | ++++ (≥30: ++++)
5 to 15 µM | > 700 nM | CCCC[C@H](NC(=O)[C@H](Cc1ccccc1)NC(=O)[C@@H](NC(=O)[C@H](C)NC(=O)[C@H](CCC(N)=O)NC(=O)[C@H](CC(=O)O)NC(=O)[C@@H](NC(=O)[C@H](Cc1ccccc1)NC(C)=O)[C@@H](C)CC)C(C)C)C(=O)N[C@@]1(C)CCCC=CCCC[C@@](C)(C(=O)N[C@@H](Cc2c[nH]cn2)C(=O)N[C@@H](C)C(=O)N[C@@H](CC(C)C)C(=O)N[C@@H](CC(C)C)C(N)=O)NC(=O)[C@H]([C@@H](C)CC)NC(=O)[C@H](C(C)C)NC(=O)[C@H](CC(C)C)NC1=O [SP-258] (Ac-FIDQAVF[Nle][S5]LVI[S5]HALL-NH2; staple 9-13) | +++ (≤25 but <50: +++) | ++ (≤5 but <15: ++)
> 30 µM | ≤ 200 nM | CCCC[C@H](NC(=O)[C@H](CCC(=O)O)NC(=O)[C@]1(C)CCCC=CCCCCCC[C@@](C)(NC(=O)[C@H](CCC(=O)O)NC(=O)[C@H](C)NC(=O)[C@@H](NC(=O)[C@H](CC(N)=O)NC(=O)[C@@H](NC(=O)[C@]2(C)CCCC=CCCCCCC[C@@](C)(NC(=O)[C@H](CCC(=O)O)NC(=O)CNC(=O)[C@H](CCC(N)=O)NC(=O)[C@H](CC(C)C)NC(=O)[C@H](CC(C)C)NC(C)=O)C(=O)N[C@@H](CC(C)C)C(=O)N[C@@H](CC(C)C)C(=O)N[C@@H](CCCNC(=N)N)C(=O)N[C@@H](C)C(=O)N[C@@H](CC(C)C)C(=O)N[C@@H](CC(=O)O)C(=O)N2)C(C)C)[C@@H](C)CC)C(=O)N[C@@H](C(C)C)C(=O)N[C@@H](CC(C)C)C(=O)N[C@@H](CCCC)C(=O)N[C@@H](CO)C(=O)N[C@@H](CC(C)C)C(=O)N[C@@H](C(C)C)C(=O)N1)C(N)=O [SP-355] (Ac-LLQGE[R8]LLRALD[S5]VNIAE[R8]VL[Nle]SLV[S5]E[Nle]-NH2; staple 6-13, 19-26) | ++ (≤10 but <25: ++) | ++++ (≥30: ++++)
> 30 µM | 200 to 400 nM | CCCC[C@H](NC(=O)[C@H](C)NC(=O)[C@]1(C)CCCC=CCCCCCC[C@@](C)(NC(=O)[C@H](CCC(=O)O)NC(=O)[C@H](CC(=O)O)NC(=O)[C@@H](NC(=O)[C@H](Cc2ccccc2)NC(C)=O)[C@@H](C)CC)C(=O)N[C@@H](C(C)C)C(=O)N[C@@H](CC(C)C)C(=O)N[C@@H](CCCC)C(=O)N[C@@H](CO)C(=O)N[C@@H](CC(C)C)C(=O)N[C@@H](C(C)C)C(=O)N1)C(=O)N[C@@H](C)C(=O)N[C@@H](CC(C)C)C(=O)N[C@@H](CC(=O)O)C(=O)N[C@@H](C)C(=O)N[C@H](C(N)=O)[C@@H](C)CC [SP-191] (Ac-FIDE[R8]VL[Nle]SLV[S5]A[Nle]ALDAI-NH2; staple 5-12) | ++ (≤10 but <25: ++) | ++++ (≥30: ++++)
15 to 30 µM | ≤ 200 nM | CCCC[C@@H]1NC(=O)[C@H](CC(C)C)NC(=O)[C@H](C(C)C)NC(=O)[C@@](C)(NC(=O)[C@H](CCC(=O)O)NC(=O)[C@H](CC(=O)O)NC(=O)[C@@H](NC(=O)[C@H](Cc2ccccc2)NC(C)=O)[C@@H](C)CC)CCCC=CCCC[C@@](C)(C(=O)N[C@@H](CC(C)C)C(=O)N[C@H](C(=O)N[C@H](C(=O)N[C@@H](CCC(=O)O)C(=O)N[C@@H](CCSC)C(=O)N[C@@H](C)C(=O)N[C@@H](CC(C)C)C(=O)N[C@@H](CC(=O)O)C(=O)N[C@@H](CCCNC(=N)N)C(=O)N[C@H](C(N)=O)[C@@H](C)CC)[C@@H](C)CC)C(C)C)NC1=O [SP-118] (Ac-FIDE[S5]VL[Nle][S5]LVIEMALDRI-NH2; staple 5-9) | +++ (≤25 but <50: +++) | ++++ (≥30: ++++)
> 30 µM | > 700 nM | CC[C@H](C)[C@H](NC(=O)[C@H](CCCNC(=N)N)NC(=O)[C@H](CC(=O)O)NC(=O)[C@H](CC(C)C)NC(=O)[C@H](C)NC(=O)[C@H](CCSC)NC(=O)[C@]1(C)CCCC=CCCC[C@](C)(NC(=O)[C@H](CCSC)NC(=O)[C@H](CC(C)C)NC(=O)[C@@H](NC(=O)[C@H](Cc2c[nH]cn2)NC(=O)[C@H](CCC(=O)O)NC(=O)[C@H](CC(N)=O)NC(=O)[C@@H](NC(=O)[C@H](Cc2ccccc2)NC(C)=O)[C@@H](C)CC)C(C)C)C(=O)N[C@@H](CC(C)C)C(=O)N[C@@H](C(C)C)C(=O)N[C@@H]([C@@H](C)CC)C(=O)N1)C(N)=O [SP-286] (Ac-FINEHVLM[S5]LVI[S5]MALDRI-NH2; staple 9-13) | ++ (≤10 but <25: ++) | ++++ (≥30: ++++)
≤ 5 µM | > 700 nM | CCCC[C@H](NC(=O)[C@H](Cc1ccccc1)NC(=O)[C@@H](NC(=O)[C@H](C)NC(=O)[C@H](CCC(N)=O)NC(=O)[C@H](CC(=O)O)NC(=O)[C@@H](NC(=O)[C@H](Cc1ccccc1)NC(C)=O)[C@@H](C)CC)C(C)C)C(=O)N[C@@]1(C)CCCC=CCCC[C@@](C)(C(=O)N[C@@H](CCCC)C(=O)N[C@@H](C)C(=O)N[C@@H](CC(C)C)C(=O)N[C@@H](CC(C)C)C(N)=O)NC(=O)[C@H]([C@@H](C)CC)NC(=O)[C@H](C(C)C)NC(=O)[C@H](CO)NC1=O [SP-252] (Ac-FIDQAVF[Nle][S5]SVI[S5][Nle]ALL-NH2; staple 9-13) | ++++ (≥50: ++++) | ++ (≤5 but <15: ++)
> 30 µM | 200 to 400 nM | CCCC[C@H](NC(=O)[C@H](CCC(=O)O)NC(=O)[C@]1(C)CCCC=CCCCCCC[C@@](C)(NC(=O)[C@H](CCC(=O)O)NC(=O)[C@H](CC(=O)O)NC(=O)[C@@H](NC(=O)[C@H](CC(N)=O)NC(=O)[C@@H](NC(=O)[C@]2(C)CCCC=CCCCCCC[C@@](C)(NC(=O)[C@H](CCC(=O)O)NC(=O)CNC(=O)[C@H](CCC(N)=O)NC(=O)[C@H](CC(C)C)NC(=O)[C@H](CC(C)C)NC(C)=O)C(=O)N[C@@H](CC(C)C)C(=O)N[C@@H](CC(C)C)C(=O)N[C@@H](CCCNC(=N)N)C(=O)N[C@@H](C)C(=O)N[C@@H](CC(C)C)C(=O)N[C@@H](CC(=O)O)C(=O)N2)C(C)C)[C@@H](C)CC)C(=O)N[C@@H](C(C)C)C(=O)N[C@@H](CC(C)C)C(=O)N[C@@H](CCCC)C(=O)N[C@@H](CO)C(=O)N[C@@H](CC(C)C)C(=O)N[C@@H](C(C)C)C(=O)N1)C(=O)N[C@@H](C)C(=O)N[C@@H](CC(C)C)C(N)=O [SP-373] (Ac-LLQGE[R8]LLRALD[S5]VNIDE[R8]VL[Nle]SLV[S5]E[Nle]AL-NH2; staple 6-13, 19-26) | +++ (≤25 but <50: +++) | ++++ (≥30: ++++)
5 to 15 µM | 400 to 700 nM | CC[C@H](C)[C@H](NC(=O)[C@H](Cc1ccccc1)NC(C)=O)C(=O)N[C@@H](CC(=O)O)C(=O)N[C@@H](CCC(=O)O)C(=O)N[C@]1(C)CCCCCCC=CCCC[C@@](C)(C(=O)N[C@@H](CCC(=O)O)C(=O)N[C@@H](CCSC)C(=O)N[C@@H](C)C(=O)N[C@@H](CC(C)C)C(N)=O)NC(=O)[C@H](C(C)C)NC(=O)[C@H](CC(C)C)NC(=O)[C@H](CO)NC(=O)[C@H](CCSC)NC(=O)[C@H](CC(C)C)NC(=O)[C@H](C(C)C)NC1=O [SP-177] (Ac-FIDE[R8]VLMSLV[S5]EMAL-NH2; staple 5-12) | ++++ (≥50: ++++) | +++ (≤15 but <30: +++)
15 to 30 µM | > 700 nM | CC[C@H](C)[C@H](NC(=O)[C@H](Cc1ccccc1)NC(C)=O)C(=O)N[C@@H](CC(=O)O)C(=O)N[C@@H](CCC(=O)O)C(=O)N[C@@H](CC(N)=O)C(=O)N[C@H](C(=O)N[C@@H](CC(C)C)C(=O)N[C@@H](CCSC)C(=O)N[C@@]1(C)CCCC=CCCC[C@@](C)(C(=O)N[C@@H](CCSC)C(=O)N[C@@H](C)C(=O)N[C@@H](CC(C)C)C(N)=O)NC(=O)[C@H]([C@@H](C)CC)NC(=O)[C@H](C(C)C)NC(=O)[C@H](CC(C)C)NC1=O)C(C)C [SP-235] (Ac-FIDENVLM[S5]LVI[S5]MAL-NH2; staple 9-13) | +++ (≤25 but <50: +++) | ++++ (≥30: ++++)
